Measured values taken from patent US11459375B2, “Cyclic peptides for the treatment of Graves' disease” (advanceCOR GmbH, priority 2017, dated 2022).
Peptide text beside a SMILES is read from it.

Key:
[1] = system: immunologically naïve mice; assay: tolerability and immunogenicity study in immunologically naive mice; conditions: for clinical findings / tolerability: 1 mg/kg bw IV, monthly administrations for 6 months
Experimental: BALB/c mice were adapted for at least one week to start experiments at the age of 12 weeks. Animals were kept as described before. […] Peptides (either 1 mg/kg body weight or NaCl vehicle control) were given by IV injection into a tail vein of these naïve mice (n=5 per group), and then continued at 4-weekly intervals for 6 months, as described before for the therapeutic study in immunized mice. Serum samples were taken at identical intervals.
1) “3rd generation assay”: Antibodies against TSHR were detected by a commercially available 3rd generation enzyme immunoassay provided by RSR Limited, Avenue Park, Pentwyn, Cardiff, U.K., in which the of the human Graves patient-derived M22 monoclonal antibody and serum antibodies compete for binding sites on immobilized TSHR. […] The assay was performed using 30 μl 1:10 (PBS) diluted serum in at least double determination according to the manufacturer's instructions.

[2] = assay type: physicochemical
Text: Peptide 836 is a 24-meric cyclic peptide corresponding to the eighth TSHR LRD loop, and peptide 829 (also 24-meric) to the first loop of the TSHR LRD.

[3] = system: CHO cells expressing the human TSHR; assay: capacity of serum anti-TSHR antibodies from treated mice to stimulate cAMP in test cells; parameters: species or system BALB/c mice; conditions: serum of in vivo treated Ad-TSHR-immunized mice, 1 mg/kg IV 4-weekly
Experimental: The measurements were carried out in Ad-TSHR-immunized mice treated by either 4-weekly injections with vehicle (0.9% NaCl, “Graves' no therapy”, n=25 mice), or administrations of 1 mg/kg body weight of peptide of the invention 836 (12 mice), or of peptide 829 (13 mice), or TSHR-Fc (18 mice), or of control peptide 835 (13 mice). In addition, age-matched immunologically naïve unimmunized mice (“healthy”, 19 animals) were investigated. Data are represented as mean±SEM. Differences between groups were tested by AVOVA followed by post hoc LSD testing.**p<0.005 compared to the TSHR-immunized group treated with only NaCl (“Graves' no therapy”). […]
Anti-TSHR autoantibody titers and potency of antibodies to stimulate TSHR-dependent cAMP levels in test cells were determined before start of immunisation (basal value), 56 days after first immunisation, 133 days after first immunisation, and 189 days after first immunisation, and at the end of experiment. […]
2) Thyroid stimulating antibodies in the serum of hyperthyroid mice were analysed by measuring cyclic adenosine monophosphate (cAMP) generation in Chinese hamster ovary (CHO) cells JP2626 expressing the human TSHR (kindly provided by Dr. Gilbert Vassart, Brussels, Belgium). […]

[4] = system: monoclonal M22 antibody binding to TSHR; assay: direct binding/scavenging of anti-TSHR antibody M22 (modified 3rd generation titer assay); parameters: species or system human; conditions: 100 μg/mL test substance, M22 final concentration 10 ng/mL
Experimental: In FIG. 8 the effects of peptides on anti-TSHR antibody titers (A) and on cAMP stimulation in TSHR-expressing test cells (B) were studied ex vivo (anti-TSHR-antibody positive serum samples). Each measurement was carried out in 4 samples. Results are shown as % of untreated controls with standard errors of the means (SEM). Significance was tested by analysis of variance (ANOVA) between groups, followed by LSD post-hoc testing. **p<0.001, compared to controls
In order to investigate the direct binding of peptides to anti-TSHR antibodies, Roche's Cobas® assay (04388790) for ECLIA was used with minor modifications: 30 μl of the diluted monoclonal M22-Bio antibody was mixed with 30 μl diluted peptide or TSHR-Fc (final concentration of 100 μg/ml in PBS) and added to the TSHR-pre-coated microtiter plate. After an incubation step for 2 h at room temperature the protocol was continued according to the manufacturer's instructions.

Row | Compound | clinical findings / tolerability [1] | solubility in water [2] | maximum TSHR-dependent cAMP levels induced in test cells by mouse serum [3] | anti-TSHR antibody titers in naive mice ([1]; 1 mg/kg IV monthly, 6 month observation period) | naive mice with anti-TSHR antibody titers above cut-off limit ([1]; 1 mg/kg IV, after 3 administrations) | anti-TSHR antibody titers (M22 binding to its substrate) [4]
1 | CC[C@H](C)[C@@H]1NC(=O)[C@H](C(C)C)NC(=O)[C@H]([C@@H](C)O)NC(=O)[C@H](CC(C)C)NC(=O)[C@H](Cc2ccc(O)cc2)NC(=O)[C@H](CCCCN)NC(=O)[C@H](CC(N)=O)NC(=O)[C@H](CCCCN)NC(=O)[C@H](CC(N)=O)NC(=O)[C@H](CC(C)C)NC(=O)[C@H](Cc2ccc(O)cc2)NC(=O)[C@H](C(C)C)NC(=O)[C@H](C)NC(=O)[C@H](CC(=O)O)NC(=O)[C@H](CC(C)C)NC(=O)[C@H](CCCCN)NC(=O)[C@H]([C@@H](C)O)NC(=O)CNC(=O)[C@H](CC(N)=O)NC(=O)[C@H](Cc2ccccc2)NC(=O)[C@H](C)NC(=O)[C@H](Cc2ccc(O)cc2)NC(=O)CNC(=O)[C@H](CC(=O)O)NC1=O [peptide 836] (cyclo(GYAFNGTKLDAVYLNKNKYLTVID)) | no pathological clinical findings were observed | easily soluble in water |  |  |  | 
2 | SPPCECHQEEDFRVTCKDIQRIPS [peptide 829] |  | easily soluble in water | not significantly different from controls |  |  | 
3 | TSHR-Fc: fusion protein: first 289 amino acids of human TSH receptor (A-subunit), GGR linker and Fc portion of human IgG2 | developed clinical signs of allergy immediately after 4 administrations |  | not affected | significantly (p<0.001) higher than in cyclic peptide-treated or vehicle-treated control mice | 3 out of 6 | significantly reduced anti-TSHR antibody titers
